# Experiments:
# Format in all cases: in vivo, human
# [1] = tested on: adult subjects with schizophrenia; assay: CGI responder rate, Clinical Study Two; conditions: LOCF
# Experimental: Notable differences were also observed between the 30 mg bifeprunox group and placebo for the change from baseline to endpoint in PANSS general psychopathology subscale score, BPRS total score, BPRS psychosis cluster score, PANSS responder rate, and CGI-I responder rate. In the study, a PANSS responder refers to a subject whose PANSS total score decreased by 20% or more from baseline to endpoint. A CGI-I responder refers to a subject who was categorized as “very much improved” or “much improved” in the CGI Global Improvement scale at endpoint.
# Pharmacokinetic (PK) data of bifeprunox in schizophrenic subjects were also assessed and are presented in a separate report (combined with data from study S1543003).
# (§1) Subjects who completed this study had the option to continue in the long-term. […] Risperidone-treated subjects were titrated from 2 mg to 6 mg daily over a three-day period and were subsequently maintained at 6 mg/day for the remainder of the treatment period. […] Blood samples were also obtained at Screening/Baseline, Week 3, and Week 6 for clinical laboratory assessments.
# CLINICAL STUDY TWO: A CGI responder is defined as a subject who is categorized as “very much improved” or “much improved” on the CGI Improvement scale. […] A notable difference between the 30 mg bifeprunox group and placebo was seen (p=0.039).
# [2] = tested on: adult subjects with schizophrenia; assay: Calgary Depression Scale for Schizophrenia (CDSS), Clinical Study Two; conditions: for CDSS Total Score, Trt Effect / Change from Baseline in CDSS Total Score, Mean (SD) / Change from Baseline in CDSS Total Score, Median / mean change (SD) from Baseline to Endpoint in CDSS score: LOCF; for CDSS score, treatment effect (bifeprunox, placebo): Endpoint LOCF; for mean change (SD) from Baseline to Endpoint in CDSS score: ITT
# Experimental: Rating scale assessments were performed weekly, except for week 5, to measure the change from baseline to endpoint of the PANSS total score. Other assessments included: PANSS positive symptom subscale score, PANSS negative symptom subscale score, PANSS general pschopathology subscale score, BPRS total score, BPRS psychosis score, the CGI-S score, the CGI-I score, responder rates based on the PANSS total score, and the Calgary Depression Scale for Schizophrenia (CDSS). […]
# as §1
# [3] = tested on: adult subjects with schizophrenia; assay: BPRS total score, Clinical Study Three
# From the text: SECONDARY OBJECTIVES To assess the efficacy of bifeprunox in treating schizophrenia using the Positive Symptom sub-scale score of the PANSS, the Negative Symptom sub-scale score of the PANSS, the General Psychopathology sub-scale of the PANSS, Brief Psychiatric Rating Scale (BPRS) total score derived from the PANSS, BPRS psychosis score derived from the PANSS, the Clinical Global Impression Severity of Illness score (CGI-S), the Clinical Global Impression Improvement score (CGI-I), CGI-I responder rate, PANSS responder rate based on the PANSS total score, Calgary Depression Scale for Schizophrenia (CDSS), and Subject Satisfaction rating.
# There were four treatment arms in this study, approximately 144 subjects per arm. […] After completing the Single-Blind Placebo Lead-in Period of at least three days, bifeprunox-treated subjects were titrated from 0.25 mg up to 20 mg/day or 30 mg/day according to a standardized titration scheme over a seven- or eight-day period, respectively. When the assigned dose was reached, subjects were maintained at that dose for the remainder of the six week treatment period. […] Subjects were hospitalized (if not already inpatients) after eligibility for study entry was verified, starting from the Screening Visit until at least 10 days after Baseline. Subjects could be hospitalized longer than 10 days if considered medically necessary by the Investigator. Rating scale assessments for efficacy and abnormal movement disorders were done weekly except for Week 5. […] Subject satisfaction with study medication was assessed at Week 6.
# [4] = Bifeprunox 20 mg, Week 1, LOCF, ITT population
# [5] = Bifeprunox 20 mg, Week 2, LOCF, ITT population
# [6] = Bifeprunox 20 mg, Week 3, LOCF, ITT population
# [7] = Bifeprunox 20 mg, Week 4, LOCF, ITT population
# [8] = Bifeprunox 20 mg, Week 6/Endpoint, LOCF, ITT population
# [9] = Bifeprunox 30 mg, Week 1, LOCF, ITT population
# [10] = Bifeprunox 30 mg, Week 2, LOCF, ITT population
# [11] = Bifeprunox 30 mg, Week 3, LOCF, ITT population
# [12] = Bifeprunox 30 mg, Week 4, LOCF, ITT population
smiles,measurement,setting,value
"O=c1[nH]c2cccc(N3CCN(Cc4cccc(-c5ccccc5)c4)CC3)c2o1 [Bifeprunox, 7-[4-([1,1′-biphenyl]-3-ylmethyl)-1-piperazinyl]-2(3H)-benzoxazolone]","CGI Responder at Endpoint No, %",[1]; 30 mg,64%
same,"CGI Responder at Endpoint Yes, %",[1]; 30 mg,36%
same,"CGI Responder at Endpoint No, %",[1]; 40 mg,72%
same,"CGI Responder at Endpoint Yes, %",[1]; 40 mg,28%
same,CGI-I responder rate (subjects much or very much improved) at Endpoint,[1]; bifeprunox 30 mg,36%
same,CGI-I responder rate (subjects much or very much improved) at Endpoint,[1]; bifeprunox 40 mg,28%
same,"CDSS Total Score, Trt Effect","[2]; 30 mg versus placebo, Week 6/Endpoint",−0.38
same,"Change from Baseline in CDSS Total Score, Mean (SD)","[2]; 30 mg, Week 1",−0.01 (2.90)
same,"Change from Baseline in CDSS Total Score, Median","[2]; 30 mg, Week 1",0.0
same,"Change from Baseline in CDSS Total Score, Mean (SD)","[2]; 30 mg, Week 2",−0.51 (3.37)
same,"Change from Baseline in CDSS Total Score, Median","[2]; 30 mg, Week 2",0.0
same,"Change from Baseline in CDSS Total Score, Mean (SD)","[2]; 30 mg, Week 3",−0.51 (3.56)
same,"Change from Baseline in CDSS Total Score, Median","[2]; 30 mg, Week 3",0.0
same,"Change from Baseline in CDSS Total Score, Mean (SD)","[2]; 30 mg, Week 4",−0.63 (3.48)
same,"Change from Baseline in CDSS Total Score, Median","[2]; 30 mg, Week 4",0.0
same,"Change from Baseline in CDSS Total Score, Mean (SD)","[2]; 30 mg, Week 6/Endpoint",−0.66 (3.64)
same,"Change from Baseline in CDSS Total Score, Median","[2]; 30 mg, Week 6/Endpoint",0.0
same,"CDSS Total Score, Trt Effect","[2]; 40 mg versus placebo, Week 6/Endpoint",0.29
same,"Change from Baseline in CDSS Total Score, Mean (SD)","[2]; 40 mg, Week 1",−0.54 (2.56)
same,"Change from Baseline in CDSS Total Score, Median","[2]; 40 mg, Week 1",0.0
same,"Change from Baseline in CDSS Total Score, Mean (SD)","[2]; 40 mg, Week 2",−0.32 (2.95)
same,"Change from Baseline in CDSS Total Score, Median","[2]; 40 mg, Week 2",0.0
same,"Change from Baseline in CDSS Total Score, Mean (SD)","[2]; 40 mg, Week 3",−0.44 (3.09)
same,"Change from Baseline in CDSS Total Score, Median","[2]; 40 mg, Week 3",0.0
same,"Change from Baseline in CDSS Total Score, Mean (SD)","[2]; 40 mg, Week 4",−0.19 (3.32)
same,"Change from Baseline in CDSS Total Score, Median","[2]; 40 mg, Week 4",0.0
same,"Change from Baseline in CDSS Total Score, Mean (SD)","[2]; 40 mg, Week 6/Endpoint",0.01 (3.66)
same,"Change from Baseline in CDSS Total Score, Median","[2]; 40 mg, Week 6/Endpoint",0.0
same,"CDSS score, treatment effect (bifeprunox, placebo)",[2]; bifeprunox 30 mg,−0.38
same,mean change (SD) from Baseline to Endpoint in CDSS score,[2]; bifeprunox 30 mg,−0.66 (3.64)
same,"CDSS score, treatment effect (bifeprunox, placebo)",[2]; bifeprunox 40 mg,0.29
same,mean change (SD) from Baseline to Endpoint in CDSS score,[2]; bifeprunox 40 mg,0.01 (3.66)
same,"BPRS total score, treatment effect (bifeprunox—placebo)","[3]; 'the mg bifeprunox group' (dose not given), Endpoint LOCF",−2.1
same,mean change (SD) from Baseline to Endpoint in BPRS total score,"[3]; 'the mg bifeprunox group' (dose not given), LOCF, ITT",−7.9 (12.0)
same,"Change from Baseline in BPRS Total Score, Mean (SD)",[3]; [4],−3.2 (7.3)
same,"Change from Baseline in BPRS Total Score, Median",[3]; [4],−3
same,"Change from Baseline in BPRS Total Score, Mean (SD)",[3]; [5],−6.0 (9.1)
same,"Change from Baseline in BPRS Total Score, Median",[3]; [5],−7
same,"Change from Baseline in BPRS Total Score, Mean (SD)",[3]; [6],−7.5 (10.3)
same,"Change from Baseline in BPRS Total Score, Median",[3]; [6],−8
same,"Change from Baseline in BPRS Total Score, Mean (SD)",[3]; [7],−8.1 (11.3)
same,"Change from Baseline in BPRS Total Score, Median",[3]; [7],−9
same,"Change from Baseline in BPRS Total Score, Mean (SD)",[3]; [8],−8.5 (11.9)
same,"Change from Baseline in BPRS Total Score, Median",[3]; [8],−8
same,"Change from Baseline in BPRS Total Score, Trt Effect (bifeprunox—placebo)",[3]; [8],−2.1
same,"Change from Baseline in BPRS Total Score, Mean (SD)",[3]; [9],−3.6 (7.3)
same,"Change from Baseline in BPRS Total Score, Median",[3]; [9],−4
same,"Change from Baseline in BPRS Total Score, Mean (SD)",[3]; [10],−5.2 (9.3)
same,"Change from Baseline in BPRS Total Score, Median",[3]; [10],−6
same,"Change from Baseline in BPRS Total Score, Mean (SD)",[3]; [11],−6.7 (10.7)
same,"Change from Baseline in BPRS Total Score, Median",[3]; [11],−7
same,"Change from Baseline in BPRS Total Score, Mean (SD)",[3]; [12],−7.3 (10.9)
same,"Change from Baseline in BPRS Total Score, Median",[3]; [12],−8
